System: HCT116 cell lines
Test: IC50 and cell viability assay of clinical drugs (CCK-8)
Assay type: cell-based, human
Settings: triplicate, mean ± SD, Resistance = drug does not affect cell viability
Description: All the mediums were purchased from […].
To determine suitable cell seeding number for each cell line, different number (300, 500, 1000, 3000) of cells/wells were seeded in a 96-well plate. A cell viability was determined using a real-time viability assay (RealTime-Glo™ Assay Reagent). Luminescence intensities were measured at different time points (4, 8, 16, 24, 36, 48, 60 and 72 hours) to evaluate a cell growth curve. To establish IC50 values of ten drugs on each cell line, gradient concentrations of each drug were prepared. […] The cell viability was measured with Cell Counting Kit 8 (e.g., CCK-8 purchased from Dojindo molecular technologies, Japan), and cell viability assay was performed after 2 hours of incubation by measuring the absorbances at 450 nm. Relative cell numbers were determined as compared with the control cells. All experiments were performed in triplicate manner, and data were represented as expressed as mean±standard deviation (mean±SD).

[1] = Homo sapiens, HCT-116, CCK-8, absorbance 450 nm

Compound | IC50 [1] | IC50 (μM) ± SD (CCK-8, absorbance 450 nm) | also measured
O=c1[nH]cc(F)c(=O)[nH]1 [5-FU (U), 5-Fluorouracil] | 8.56 ± 0.897 µM | – | –
Nc1nc(=O)c2c([nH]1)NCC(CNc1ccc(C(=O)N[C@@H](CCC(=O)O)C(=O)O)cc1)N2C=O (mixture of isomers) [Folinic acid (F), Folinic acid] | – | Resistance | –
O=C1[O][Pt]2([NH][C@@H]3CCCC[C@H]3[NH]2)[O]C1=O [Oxaliplatin (O), Oxaliplatin] | – | – | IC50 (CCK-8, absorbance 450 nm): 10.3 ± 3.27 µM
Nc1ccn([C@@H]2O[C@H](CO)[C@@H](O)C2(F)F)c(=O)n1 [Gemcitabine (G), Gemcitabine] | 0.183 µM | – | –
Bevacizumab [Bevacizumab (B)] | – | Resistance | –

The next lines start with results.

IC50 [1] | IC50 (μM) ± SD (CCK-8, absorbance 450 nm) | Compound | also measured
0.01 ± 0.03 µM | – | CCc1c2c(nc3ccc(OC(=O)N4CCC(N5CCCCC5)CC4)cc13)-c1cc3c(c(=O)n1C2)COC(=O)[C@]3(O)CC [Irinotecan (I), Irinotecan] | –
5.89 ± 0.713 µM | – | CNC(=O)c1cc(Oc2ccc(NC(=O)Nc3ccc(Cl)c(C(F)(F)F)c3)c(F)c2)ccn1 [Regorafenib (R), Regorafenib] | –
28.5 ± 0.802 µM | – | COc1cc2nccc(Oc3ccc(NC(=O)NC4CC4)c(Cl)c3)c2cc1C(N)=O [Lenvatinib (L), Lenvatinib] | –
– | Resistance | Panitumumab [Panitumumab (P)] | –
